Results published in patent publication US10053675B2, “Hydroxyphenylpyruvate dioxygenase polypeptides and methods of use” (SYNGENTA PARTICIPATIONS AG, priority 2009, dated 2018).
“And” between values parts separate entries of the source, which are not always exact repeats. Equal values may be shown once. Read-outs that look alike come from different tables or passages of the source.

Legend:
[1] = target: T1, Avena-derived HPPD SEQ ID NO: 1 (Avena sativa, UniProt A0ACD5V6K6, DEL109-109); experiment: biochemical; assay type: binding; settings: for koff / Off rate k1, individual experiments: direct or indirect radiochemical method
Description: On rates (governed by an association rate constant, kon) for the formation of the enzyme:inhibitor complexes, EI and off rates (governed by a dissociation rate constant, koff) were determined by methods known in the art and essentially as described in Hawkes et al. (2001) Proc. Bright. Crop. Prot. Conf. Weeds, 2:563-568 and in PCT Publication No. WO 02/46387).
Off rates (k1 in the scheme below) were derived from exchange rate studies where either the test inhibitor, I, or its exchange partner, J were radiolabelled and the data fit according to the scheme below. As noted in Hawkes et al. (2001) Proc. Bright. Crop. Prot. Conf.
After 30 minutes the exchange reaction was initiated with addition of 100 μl 1 mM ‘cold’ structure A with thorough mixing, and, immediately, 150 μl were withdrawn and loaded onto a NAP5 column, the protein exchanged into 50 mM BisTrisPropane buffer at pH 7.0 containing 0.1M KCl by rapid (<2 min) chromatography down a NAP5 G25 Sephadex® column (GE Healthcare Ltd, Buckinghamshire UK) and the amount of ^14C bound to protein measured by Optiphase scintillant using a Tri-Carb® 2900TR scintillation counter (Perkin Elmer, Wellesley, Mass.). Further aliquots were removed and measured in the same way at various times over minutes or hours as required in order to determine the exchange kinetics.
In this case, off rates were determined by preincubating ˜200 pmoles HPPD in reaction buffer (50 mM BTP pH 7, 25 mM Na ascorbate, 4 μg/ml bovine catalase, and 10% glycerol) containing ˜1.0 nmoles ^14C inhibitor at 25° C. in a total assay volume of 1.3 ml. After 30 minutes the reaction vessel was transferred to ice. After a further 10 minutes at ice temperature the exchange reaction was initiated by addition of 100 μl 1 mM Structure A, with thorough mixing, and 150 μl was withdrawn, loaded and quickly exchanged down a NAP5 column in a cold room at ˜5-8° C. in order to quantify the amount of radiolabel remaining bound to the protein at various time from the start of exchange at ice temperature.
Off rates (k1) of HPPD inhibitors that are not readily available radiolabelled or that present other measurement problems (for example high levels of background non-specific protein-binding which can be measured as radiolabel binding that persists in the presence of high concentrations of ‘cold’ inhibitor) may be measured indirectly. […] Exemplary methods are also described in PCT Publication No. WO 02/46387.

[2] = test system: tobacco plants expressing wheat HPPD (A7WK82); experiment: Glasshouse spray test on transgenic tobacco expressing wheat HPPD; assay type: in vivo; settings: 14 DAT
Description: (§1) The CTP/HPPD encoding nucleotide sequence is edited by PCR (or initially synthesized) to include a 5′ XhoI site, a TMV omega enhancer (SEQ ID NO: 86) and a 3′ KpnI site (and to remove any such internal sites).
For example, a master plate of Agrobacterium tumefaciens containing the HPPD expressing binary vector is used to inoculate 10 ml LB (L broth) containing 100 mg/l rifampicin plus 50 mg/l kanamycin using a single bacterial colony. This is incubated overnight at 28° C. shaking at 200 rpm. This entire overnight culture is used to inoculate a 50 ml volume of LB containing the same antibiotics. Again this is cultured overnight at 28° C. shaking at 200 rpm. The Agrobacterium cells are pelleted by centrifuging at 3000 rpm for 15 minutes and then resuspended in MS (Murashige and Skoog) medium containing 30 g/l sucrose, pH 5.9 to an OD (600 nM)=0.6. This suspension is dispensed in 25 ml aliquots into petri dishes.
Clonally micro-propagated tobacco shoot cultures are used to excise young (not yet fully expanded) leaves. The mid rib and outer leaf margins are removed and discarded, and the remaining lamina cut into 1 cm squares. These are transferred to the Agrobacterium suspension for 20 minutes. […]
(§2) As shoots start to regenerate from the callusing leaf explants, these are removed to Shoot elongation medium (MS medium, 30 g/l sucrose, 8 g/l plantagar, 100 mg/l kanamycin, 200 mg/l timentin, 250 mg/l carbenicillin, pH 5.9). Stable transgenic plants readily root within 2 weeks. […]
(§3) Putative transgenic plants that are rooting and showing vigorous shoot growth on the medium incorporating kanamycin are analysed by PCR using primers that amplified a 500 bp fragment within the HPPD transgene. […]
(§4) A sub-set of about 30 plants were then selected on the basis of similar size from each population for spray testing. […] Plants were assessed for damage and scored at 14 days after treatment (DAT). […]

[3] = target: T1, Avena-derived HPPD SEQ ID NO: 1; experiment: On rate (kon, k2) of enzyme:inhibitor complex formation; assay type: binding; settings: read-out: On rate, activity based method
[4] = test system: tobacco plants expressing Arabidopsis HPPD (SEQ ID NO: 13); experiment: Glasshouse spray test on transgenic tobacco expressing Arabidopsis HPPD; assay type: in vivo; settings: 600 g/ha isoxaflutole, 14 DAT
Description: as §1
(§5) For example, a master plate of Agrobacterium tumefaciens containing the HPPD expressing binary vector is used to inoculate 10 ml LB (L broth) containing 100 mg/l rifampicin plus 50 mg/l kanamycin using a single bacterial colony. This is incubated overnight at 28° C. shaking at 200 rpm. This entire overnight culture is used to inoculate a 50 ml volume of LB containing the same antibiotics. Again this is cultured overnight at 28° C. shaking at 200 rpm. […]
as §2, §3, §4

[5] = test system: tobacco plants expressing Pseudomonas fluorescens HPPD (SEQ ID NO: 14); experiment: Glasshouse spray test on transgenic tobacco expressing Pseudomonas HPPD; assay type: in vivo; settings: 600 g/ha isoxaflutole, 14 DAT
Description: as §1, §5, §2, §3, §4

[6] = target: T1, Avena-derived HPPD SEQ ID NO: 1; experiment: HPPD assay for KmHPP and kcat (HPLC/UV quantitation of homogentisate); assay type: biochemical; settings: 25° C.
Description: The assay solution was transferred to Chromacol 03-CVG HPLC vials, sealed and the amount of homogentisate formed in a 40 μl aliquot determined by injection onto a reverse phase Aqua C18 5μ 75×4.6 mm HPLC column running 5.5% acetonitrile 0.1% TFA (Buffer A) at 1.5 ml/min. The column was eluted at 1.5 ml/minute using a 2 minute wash in buffer A, followed by a 2 minute wash in a 30/70 mixture of buffer A and 100% acetonitrile, and a further 3.5 minute wash in buffer A. The elution of homogentisate was monitored by UV at 292 nm and the amount formed in each reaction quantified by comparison with a standard calibration curve.
Km and Vmax values were determined (for example FIG. 1) using a non linear least squares fit using Grafit 4™ software (Erithacus Software, Middlesex, UK). Kcat values were determined by dividing the maximum rate, Vmax expressed in nmol/s by the number of nmoles of HPPD enzyme (based on the concentration determined by active-site titration).
For the alternative assumption of one active site per monomer then calculated kcat values should simply be correspondingly and systematically halved.

[7] = Kd of inhibitor over Km HPP of SEQ ID NO: 1
[8] = 25° C., read-out: Off rate k1 / koff (average or final estimate)
[9] = 25° C., individual measurements, read-out: Off rate k1, individual experiments
[10] = 25° C., individual measurements

CCOc1c(S(C)(=O)=O)ccc(C(=O)C2C(=O)CC(C)CC2=O)c1Cl (stereo not shown) [Compound A]
Kd/Km ratio [1, 7]: 0.000036

CS(=O)(=O)c1ccc(C(=O)C2C(=O)CCCC2=O)c([N+](=O)[O-])c1 [Compound B, mesotrione]
Events exhibiting < or equal to 10% damage ([2]; 600 g/ha mesotrione): Five out of 33

COCCOCc1nc(C(F)(F)F)ccc1C(=O)C1C(=O)C2CCC(C2)C1=O (stereo not shown) [Compound C]
Kd [1]: 7.1 nM | koff [1, 8]: 5.3e-05 s⁻¹ | koff [1, 9]: 5.67e-05 s⁻¹ | Kd/Km ratio [1, 7]: 0.0013

CS(=O)(=O)c1cc(C(F)(F)F)ccc1C(=O)C(C#N)C(=O)C1CC1 (stereo not shown) [Compound D]
Kd [1]: 1.36 nM | koff [1, 8]: 4.39e-05 s⁻¹ | koff [1, 9]: 4.5e-05 s⁻¹ | Kd/Km ratio [1, 7]: 0.00025 | kon [3]: 57000 M⁻¹ s⁻¹

CS(=O)(=O)c1ccc(C(=O)C2C(=O)CCCC2=O)c(Cl)c1COCC(F)(F)F [Compound E]
Kd [1]: 0.228 nM | Kd/Km ratio [1]: 0.000042 | Off rate k1, individual experiments [1, 10]: 2.02E-05 s^−1 and 3.00E-05 s^−1 and 3.67E-05 s^−1 and 3.17E-05 s^−1 (2×) and 2.67E-05 s^−1 (2×) and 3.33E- 05 s^−1 | koff ([1]; read-out: Off rate k1, individual experiments, 25° C., individual measurements): 3.08e-05 s⁻¹

Cc1c(C(=O)C2C=NN(C)C2=O)ccc(S(C)(=O)=O)c1C1=NOCC1 (stereo not shown) [Compound F]
koff [1, 8]: 6.72e-05 s⁻¹ | Off rate k1, individual experiments [1, 10]: 6e-05 s⁻¹ and 7e-05 s⁻¹ and 6.83e-05 s⁻¹ | koff [1, 9]: 7.08e-05 s⁻¹

CS(=O)(=O)c1cc(C(F)(F)F)ccc1C(=O)c1cnoc1C1CC1 [isoxaflutole]
Bleaching [4]: Full | Bleaching ([2]; 600 g/ha isoxaflutole): Full and Green and Partly | Events showing less than 20% damage ([2]; 600 g/ha isoxaflutole): 3/33 | Bleaching [5]: Full and Partly | Plants showing 50% damage or less [5]: 4/32

B1: SEQ ID NO: 1: the HPPD amino acid sequence of Avena sativa (protein, listed as Avena sativa)
chain: MPPTPATATGAAAAAVTPEHAARSFPRVVRVNPRSDRFPVLSFHHVELWCADAASAAGRFSFALGAPLAARSDLSTGNSAHASLLLRSGALAFLFTAPYAPPPQEAATAATASIPSFSADAARTFAAAHGLAVRSVGVRVADAAEAFRVSVAGGARPAFAPADLGHGFGLAEVELYGDVVLRFVSYPDETDLPFLPGFERVSSPGAVDYGLTRFDHVVGNVPEMAPVIDYMKGFLGFHEFAEFTAEDVGTTESGLNSVVLANNSEAVLLPLNEPVHGTKRRSQIQTYLEYHGGPGVQHIALASNDVLRTLREMRARTPMGGFEFMAPPQAKYYEGVRRIAGDVLSEEQIKECQELGVLVDRDDQGVLLQIFTKPVGDRPTFFLEMIQRIGCMEKDEVGQEYQKGGCGGFGKGNFSELFKSIEDYEKSLEVKQSVVAQKS
Km ([6]; pH 7.0): 5.38 µM | kcat average ([6]; one active-site per dimer assumed): 6.46 s⁻¹
